From ChEMBL document CHEMBL5625173, “Antimycobacterial pyridine carboxamides: From design to in vivo activity” (Eur J Med Chem, 2023) come the findings set out here.

≈ marks a conversion by molar mass, not a printed value. Some results are limits rather than exact numbers.

Usually MIC stands for the least concentration at which growth counts as inhibited. A lower MIC goes with a more susceptible organism.

Common to all, as to assay type: functional
The test system of experiment [1] is Mycobacterium tuberculosis. Kind of experiment: Antimycobacterial activity against Mycobacterium tuberculosis H37Rv overexpressing folC by alamar blue staining based microplate analysis. Background: The colour change of resazurin is a common sign of viable cells or microbes.
Experiment [2] concerns Mycobacterium tuberculosis. Nature of the experiment: Antimycobacterial activity against Mycobacterium tuberculosis H37Rv overexpressing ribD by alamar blue staining based microplate analysis.
For experiment [3], the system named is Mycobacterium tuberculosis. Kind of experiment: Antimycobacterial activity against Mycobacterium tuberculosis H37Rv overexpressing folP1 by alamar blue staining based microplate analysis.
Experiment [4] relates to Mycobacterium tuberculosis. Nature of the experiment: Antimycobacterial activity against Mycobacterium tuberculosis H37Rv overexpressing dfrA by alamar blue staining based microplate analysis.

In the case of `O=C(Nc1ccc(C(=O)O)c(O)c1)c1ccc2ccccc2n1`, the MIC in experiment [1], in experiment [2], in experiment [3] and in experiment [4] was 8 mg/L (≈ 25.9 µM) in each case.

For `O=C(Nc1ccc(C(=O)[O-])c(O)c1)c1ccc2ccccc2n1.[Na+]`, the MIC in experiment [1], in experiment [2], in experiment [3] and in experiment [4] was 8 mg/L each time.

For `Nc1ccc(C(=O)O)c(O)c1` [AMINOSALICYLIC ACID], the MIC in experiment [1] is 0.02 mg/L (≈ 0.131 µM); in experiment [2], 2.5 mg/L (≈ 16.3 µM); in experiment [3] it was 0.02 mg/L (≈ 0.131 µM); in experiment [4], > 5 mg/L.
